# Assay results taken from PubChem BioAssay AID1963966 (Molecular Pharmacology Branch, DTP, NCI, 2024).
# System: 935938-334-R-J1-PDC spheroids with HUVEC/MSC, viability
# Assay: Anticancer human tumor 935938-334-R-J1-PDC patient-derived small intestine adenocarcinoma cell line growth inhibition [PI3K]
# Conditions: for IC50: curve of first compound; for viability, T/C: stronger effect = lower value
# In short: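 We assembled tumor spheroids that included a stromal compartment of HUVEC and MSCs, then exposed them to targeted agents alone and together with PI3K pathway inhibitors. Concentration series descended by half-log from clinically achievable Cmax levels. Viability served as the endpoint.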
# 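Note: compound exposure lasted seven days before viability was read.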
# 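Throughout, for viability, T/C: percent of vehicle DMSO treated spheroid viability so 100% = untreated.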
smiles,measurement,setting,value
CC1(C)CCC(Nc2ncc(C(F)(F)F)c(-c3c[nH]c4c(P(C)(C)=O)c(C#N)ccc34)n2)CN1 (configuration not stated) + COc1c(OCCCN2CCOCC2)ccc2c3n(c(=NC(=O)c4cnc(N)nc4)nc12)CCN3,IC50,second compound 0.00316 µM,< 31.6 nM
same,IC50,second compound 0.01 µM,< 31.6 nM
same,IC50,second compound 0.0316 µM,< 31.6 nM
same,IC50,second compound 0.1 µM,< 31.6 nM
same,IC50,second compound 0.316 µM,< 31.6 nM
same,IC50,second compound 1 µM,< 31.6 nM
same,"viability, T/C","second compound 0.00316 µM, first compound 0.0316 µM",47.8%
same,"viability, T/C","second compound 0.00316 µM, first compound 0.1 µM",35.4%
same,"viability, T/C","second compound 0.00316 µM, first compound 0.316 µM",35%
same,"viability, T/C","second compound 0.00316 µM, first compound 1 µM",33%
same,"viability, T/C","second compound 0.00316 µM, first compound 3.16 µM",37.3%
same,"viability, T/C","second compound 0.00316 µM, first compound 10 µM",8.87%
same,"viability, T/C","second compound 0.01 µM, first compound 0.0316 µM",40.9%
same,"viability, T/C","second compound 0.01 µM, first compound 0.1 µM",34.9%
same,"viability, T/C","second compound 0.01 µM, first compound 0.316 µM",30.1%
same,"viability, T/C","second compound 0.01 µM, first compound 1 µM",34.6%
same,"viability, T/C","second compound 0.01 µM, first compound 3.16 µM",29.6%
same,"viability, T/C","second compound 0.01 µM, first compound 10 µM",8.72%
same,"viability, T/C","second compound 0.0316 µM, first compound 0.0316 µM",30.4%
same,"viability, T/C","second compound 0.0316 µM, first compound 0.1 µM",35.4%
same,"viability, T/C","second compound 0.0316 µM, first compound 0.316 µM",33.1%
same,"viability, T/C","second compound 0.0316 µM, first compound 1 µM",27.5%
same,"viability, T/C","second compound 0.0316 µM, first compound 3.16 µM",34.2%
same,"viability, T/C","second compound 0.0316 µM, first compound 10 µM",6.35%
same,"viability, T/C","second compound 0.1 µM, first compound 0.0316 µM",35%
same,"viability, T/C","second compound 0.1 µM, first compound 0.1 µM",22.9%
same,"viability, T/C","second compound 0.1 µM, first compound 0.316 µM",20.2%
same,"viability, T/C","second compound 0.1 µM, first compound 1 µM",23.8%
same,"viability, T/C","second compound 0.1 µM, first compound 3.16 µM",25.7%
same,"viability, T/C","second compound 0.1 µM, first compound 10 µM",6.52%
same,"viability, T/C","second compound 0.316 µM, first compound 0.0316 µM",25%
same,"viability, T/C","second compound 0.316 µM, first compound 0.1 µM",21%
same,"viability, T/C","second compound 0.316 µM, first compound 0.316 µM",22.8%
same,"viability, T/C","second compound 0.316 µM, first compound 1 µM",22.1%
same,"viability, T/C","second compound 0.316 µM, first compound 3.16 µM",23.3%
same,"viability, T/C","second compound 0.316 µM, first compound 10 µM",4.96%
same,"viability, T/C","second compound 1 µM, first compound 0.0316 µM",18.2%
same,"viability, T/C","second compound 1 µM, first compound 0.1 µM",24.7%
same,"viability, T/C","second compound 1 µM, first compound 0.316 µM",15.8%
same,"viability, T/C","second compound 1 µM, first compound 1 µM",24.9%
same,"viability, T/C","second compound 1 µM, first compound 3.16 µM",19%
same,"viability, T/C","second compound 1 µM, first compound 10 µM",3.4%
